Reference: patent US20110280862A1, “GEP AND DRUG TRANSPORTER REGULATION, CANCER THERAPY AND PROGNOSIS” (THE UNIVERSITY OF HONG KONG, priority 2010, published 2011)
≈ marks a conversion by molar mass, not a printed value. Where two headings read alike, the source gives them in different places.

Key:
Assay type in all cases: cell-based, Human
[1] = tested on: cisplatin resistant cells; assay: MTT assay, drug IC50, cisplatin resistant cells
Method: (§1) Human liver cancer cell lines, Hep3B and HepG2, were purchased from American Type Culture Collection (Manassas, Va.). Culture method has been previously described, for example by Ho J C, et al. Hepatology 2008; 47: 1524-1532 and Cheung S T, et al. Clin Cancer Res 2004; 10: 7629-7636. Stable transfectants for GEP overexpression and suppression have also been described. For chemoresistant populations, the Hep3B cells were plated out and selected under various chemotherapeutic agents of various concentrations at 10-fold dilution for 30 days. The highest dose that still had viable cells over the extended selection period was used and the cells expanded for further selection. The one-step selected cells were then plated out again and selected under escalating doses of the respective drug in a 2-fold manner for another 30 days. The two-step selection process could select a population of cells more resistant to chemotherapeutic agents. The cells selected for resistance to doxorubicin were referred to as doxorubicin resistant cells. […] The drug IC50 value was determined by MTT assay. […] Apoptosis was determined by Annexin V-FITC (AV-FLI) and propidium iodide (PI-FL2) staining using flow cytometry. […] For doxorubicin uptake assays, cells were incubated with or without doxorubicin for 24 hours, and doxorubicin content (FL2) was analyzed by flow cytometry. […]

[2] = tested on: Hep3B cells; assay: MTT assay, drug IC50, parental cells
Method: as §1

[3] = tested on: doxorubicin resistant cells; assay: MTT assay, drug IC50, doxorubicin resistant cells
Method: as §1

[4] = tested on: GEP overexpression transfectants; assay: Doxorubicin uptake assay by flow cytometry; conditions: doxorubicin 0.5 μg/ml, 24 hours, control or with ABCB5 suppression by siRNA
Method: (§2) Human liver cancer cell lines, Hep3B and HepG2, were purchased from American Type Culture Collection (Manassas, Va.). Culture method has been previously described, for example by Ho J C, et al. Hepatology 2008; 47: 1524-1532 and Cheung S T, et al. Clin Cancer Res 2004; 10: 7629-7636. Stable transfectants for GEP overexpression and suppression have also been described. For chemoresistant populations, the Hep3B cells were plated out and selected under various chemotherapeutic agents of various concentrations at 10-fold dilution for 30 days. The highest dose that still had viable cells over the extended selection period was used and the cells expanded for further selection. The one-step selected cells were then plated out again and selected under escalating doses of the respective drug in a 2-fold manner for another 30 days. The two-step selection process could select a population of cells more resistant to chemotherapeutic agents. The cells selected for resistance to doxorubicin were referred to as doxorubicin resistant cells. Similarly, the cells selected under cisplatin were referred to as cisplatin resistant cells. The drug IC50 value was determined by MTT assay. For apoptosis assays, cells were incubated with or without chemotherapeutic agents for 24 to 48 hours. Apoptosis was determined by Annexin V-FITC (AV-FLI) and propidium iodide (PI-FL2) staining using flow cytometry. The total apoptotic population included the early apoptotic cells (high MFI of AV but low PI) plus the late apoptotic cells (high MFI of both AV and PI) of the scatter plot. […] For doxorubicin uptake assays, cells were incubated with or without doxorubicin for 24 hours, and doxorubicin content (FL2) was analyzed by flow cytometry. Pilot studies had examined treatment time-points 0, 1, 3, 6 and 24 hours, and the latter three time-points had similar data profiles. […] There was a time-dependent effect, and thus the data charts presented the data of the 24-hour treatment in comparison with the baseline data. […]

[5] = tested on: Hep3B cells; assay: Doxorubicin uptake assay by flow cytometry; conditions: doxorubicin 0.5 μg/ml, 24 hours, control or with ABCB5 suppression by siRNA
Method: as §2

[6] = tested on: doxorubicin resistant cells; assay: Doxorubicin uptake assay by flow cytometry; conditions: doxorubicin 0.5 μg/ml, 24 hours, control or with ABCB5 suppression by siRNA
Method: as §2

[7] = tested on: GEP overexpression transfectants; assay: Apoptosis assay, Annexin V/PI flow cytometry; conditions: doxorubicin 0.5 μg/ml, 24 hours, control or with ABCB5 suppression by siRNA
Method: as §2

[8] = tested on: Hep3B cells; assay: Apoptosis assay, Annexin V/PI flow cytometry; conditions: doxorubicin 0.5 μg/ml, 24 hours, control or with ABCB5 suppression by siRNA
Method: as §2

[9] = tested on: doxorubicin resistant cells; assay: Apoptosis assay, Annexin V/PI flow cytometry; conditions: doxorubicin 0.5 μg/ml, 24 hours, control or with ABCB5 suppression by siRNA
Method: as §2

| Structure (SMILES) | increase in resistance compared to parental cells ([1]; cisplatin resistant cells vs parental cells) | IC50 ([1]; cisplatin resistant cells, MTT assay) [µg/mL] | IC50 [2] [µg/mL] | IC50 ([3]; Homo sapiens, doxorubicin resistant cells, MTT assay) [µg/mL] | increase in resistance compared to parental cells ([3]; doxorubicin resistant cells vs parental cells) | population with doxorubicin uptake [4] [%] | population with doxorubicin uptake [5] [%] | population with doxorubicin uptake [6] [%] | IC50 ([2]; Homo sapiens, Hep3B, read-out: IC50) [µg/mL] | net increase in apoptotic populations [7] [%] | net increase in apoptotic populations [8] [%] | net increase in apoptotic populations [9] [%] |
| --- | --- | --- | --- | --- | --- | --- | --- | --- | --- | --- | --- | --- |
| N.N.[Cl][Pt][Cl] [cisplatin] | more than 10 folds | 8.53 | 0.84 |  |  |  |  |  |  |  |  |  |
| COc1cccc2c1C(=O)c1c(O)c3c(c(O)c1C2=O)C[C@@](O)(C(=O)CO)C[C@@H]3O[C@H]1C[C@H](N)[C@H](O)[C@H](C)O1 [doxorubicin] |  |  |  | 1.78 (≈ 3.27 µM) | more than 16 folds | 55.4 | 76.4 | 31.1 | 0.11 (≈ 0.202 µM) | 11.3 | 12.5 | 7.7 |
